# pIC50: −log10 of the molar value.
# Legend:
# [1] = system: acetyl-α-tubulin in SH-SY5Y neuroblastoma cells; assay: ICC dose response of acetylated alpha-tubulin in SH-SY5Y neuroblastoma cells; assay type: cell-based; settings: Homo sapiens, 24 h, read-out: IC50 (acetyl-α-tubulin average fluorescence intensity)
# Experimental: Cell Seeding: Seeded at 2,000 cells/well in 384-well plates 24-hours prior to compound treatment
# Compound Treatment: 24-hour
# HDAC6 inhibitor compounds tested (1 control and 6 experimental)
# 9-point dose-response curves for all compounds, starting at 30 μM with 3-fold serial dilutions
# 4 technical replicate wells per condition tested
# Cells were seeded in 90 μL media. 10 μL of 10× compound solutions added to 90 μL media for 24-hours
# Fixation: 4% PFA for 15 minutes (after removing all media and washing with DPBS+0.1% Tween-20)
# Permeabilization: 0.1% Triton X-100 for 20 minutes
# Primary antibody: acetyl-α-tubulin (Lys40/D20G3; Cell Signaling Technologies, #5335S) 1:1000 dilution in DPBS+5% goat serum+0.1% Tween-20, 1 hour at room temp on orbital shaker
# Secondary antibody: Goat anti-Rabbit IgG (H+L) Highly Cross-Adsorbed Secondary Antibody, Alexa Fluor™ Plus 488, Catalog #A32731, 1:1000 dilution+Hoechst 33342, 1:10,000 dilution in DPBS+5% goat serum+0.1% Tween-20, 1 hour at room temp on orbital shaker
# High-content imaging system: Image Xpress Micro Confocal from Molecular Devices […]
# Integrated fluorescence intensity of acetyl-α-tubulin was calculated using an automated image-analysis algorithm in Meta Xpress software
# Average intensity per cell was calculated by dividing the integrated fluorescence intensity by the number of nuclei. […]
# HDAC6 = molecular target: T1, HDAC6 (Homo sapiens, UniProt Q9UBN7); assay: Biochemical HDAC6 inhibitory activity assay; settings: read-out: HDAC6 IC50
# T1 sequence (Q9UBN7 1-1215): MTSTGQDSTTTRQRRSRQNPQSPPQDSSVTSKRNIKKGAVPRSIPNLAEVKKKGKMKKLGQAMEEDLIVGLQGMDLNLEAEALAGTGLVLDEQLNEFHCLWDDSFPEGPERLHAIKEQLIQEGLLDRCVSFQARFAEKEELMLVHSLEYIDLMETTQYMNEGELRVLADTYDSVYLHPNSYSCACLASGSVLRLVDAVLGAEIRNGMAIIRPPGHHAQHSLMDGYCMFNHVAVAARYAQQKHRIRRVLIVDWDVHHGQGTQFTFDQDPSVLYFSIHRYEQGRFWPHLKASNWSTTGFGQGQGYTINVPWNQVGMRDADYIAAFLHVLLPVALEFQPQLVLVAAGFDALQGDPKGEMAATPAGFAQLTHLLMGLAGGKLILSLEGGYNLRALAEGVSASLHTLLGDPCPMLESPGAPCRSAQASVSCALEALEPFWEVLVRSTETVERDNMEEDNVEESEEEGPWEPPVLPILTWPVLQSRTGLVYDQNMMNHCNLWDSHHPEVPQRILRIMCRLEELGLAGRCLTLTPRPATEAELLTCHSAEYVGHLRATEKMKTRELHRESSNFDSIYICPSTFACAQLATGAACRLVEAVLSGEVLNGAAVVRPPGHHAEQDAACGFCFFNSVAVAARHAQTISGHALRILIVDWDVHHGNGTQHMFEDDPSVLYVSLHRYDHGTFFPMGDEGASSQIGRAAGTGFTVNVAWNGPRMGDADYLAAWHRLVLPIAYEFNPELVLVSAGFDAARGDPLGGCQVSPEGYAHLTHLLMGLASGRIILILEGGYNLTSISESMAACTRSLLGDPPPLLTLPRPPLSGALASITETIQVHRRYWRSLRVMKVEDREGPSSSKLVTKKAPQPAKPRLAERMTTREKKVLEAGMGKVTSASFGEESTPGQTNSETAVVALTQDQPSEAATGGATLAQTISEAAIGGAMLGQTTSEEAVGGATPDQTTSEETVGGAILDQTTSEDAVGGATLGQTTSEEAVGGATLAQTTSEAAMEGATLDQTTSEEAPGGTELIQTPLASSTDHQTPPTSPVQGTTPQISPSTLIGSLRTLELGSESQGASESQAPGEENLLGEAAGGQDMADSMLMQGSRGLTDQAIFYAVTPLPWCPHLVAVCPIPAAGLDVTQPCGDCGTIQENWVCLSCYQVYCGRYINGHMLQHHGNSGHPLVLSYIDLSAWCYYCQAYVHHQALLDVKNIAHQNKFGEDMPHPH
# HDAC1 = HDAC1 (Homo sapiens, UniProt Q13547); assay: HDAC selectivity panel: HDAC1; assay type: biochemical
# HDAC3 = HDAC3 (Homo sapiens, UniProt O15379); assay: HDAC selectivity panel: HDAC3; assay type: biochemical
# HDAC8 = molecular target: T2, HDAC8 (Homo sapiens, UniProt Q9BY41); assay: HDAC selectivity panel: HDAC8; assay type: biochemical
# T2 sequence (Q9BY41 1-377): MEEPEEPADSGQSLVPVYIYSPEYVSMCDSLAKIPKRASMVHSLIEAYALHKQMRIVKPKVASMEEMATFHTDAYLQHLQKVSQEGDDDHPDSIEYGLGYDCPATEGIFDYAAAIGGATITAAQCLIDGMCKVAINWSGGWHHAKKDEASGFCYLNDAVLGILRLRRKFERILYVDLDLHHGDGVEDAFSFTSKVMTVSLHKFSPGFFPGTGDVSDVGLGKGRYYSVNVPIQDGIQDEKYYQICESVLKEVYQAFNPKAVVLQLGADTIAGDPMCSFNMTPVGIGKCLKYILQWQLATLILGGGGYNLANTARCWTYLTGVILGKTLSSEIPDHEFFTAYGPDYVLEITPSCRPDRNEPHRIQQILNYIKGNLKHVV
# HDAC10 = molecular target: T3, HDAC10 (Homo sapiens, UniProt Q969S8); assay: HDAC selectivity panel: HDAC10; assay type: biochemical
# T3 sequence (Q969S8 1-669): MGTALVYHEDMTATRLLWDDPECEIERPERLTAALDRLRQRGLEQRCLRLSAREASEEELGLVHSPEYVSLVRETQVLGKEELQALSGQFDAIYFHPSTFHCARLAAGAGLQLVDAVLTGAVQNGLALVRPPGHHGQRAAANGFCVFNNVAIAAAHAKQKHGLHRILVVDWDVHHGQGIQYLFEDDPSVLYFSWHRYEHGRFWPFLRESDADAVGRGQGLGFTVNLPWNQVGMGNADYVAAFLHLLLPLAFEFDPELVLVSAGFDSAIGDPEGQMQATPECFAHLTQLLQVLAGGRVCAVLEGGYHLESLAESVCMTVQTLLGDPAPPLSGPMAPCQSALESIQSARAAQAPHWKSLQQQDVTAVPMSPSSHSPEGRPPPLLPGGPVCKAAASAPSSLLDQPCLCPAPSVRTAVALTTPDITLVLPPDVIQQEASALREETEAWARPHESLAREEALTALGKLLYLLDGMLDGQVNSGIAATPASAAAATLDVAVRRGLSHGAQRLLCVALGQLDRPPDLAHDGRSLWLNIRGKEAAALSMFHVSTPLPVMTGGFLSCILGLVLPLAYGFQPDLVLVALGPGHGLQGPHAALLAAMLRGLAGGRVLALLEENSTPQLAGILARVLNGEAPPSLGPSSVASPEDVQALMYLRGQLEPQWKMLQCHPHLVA
# HDAC11 = molecular target: T4, HDAC11 (Homo sapiens, UniProt Q96DB2); assay: HDAC selectivity panel: HDAC11; assay type: biochemical
# T4 sequence (Q96DB2 1-347): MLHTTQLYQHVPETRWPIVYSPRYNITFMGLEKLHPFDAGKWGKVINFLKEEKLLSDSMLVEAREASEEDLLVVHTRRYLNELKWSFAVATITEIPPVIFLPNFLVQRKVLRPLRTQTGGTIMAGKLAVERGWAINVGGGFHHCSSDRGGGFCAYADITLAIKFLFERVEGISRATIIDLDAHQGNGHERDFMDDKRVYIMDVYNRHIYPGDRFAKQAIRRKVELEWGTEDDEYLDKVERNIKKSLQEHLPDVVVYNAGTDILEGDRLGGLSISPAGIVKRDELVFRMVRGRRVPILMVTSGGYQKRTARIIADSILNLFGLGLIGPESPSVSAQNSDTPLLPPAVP
# [2] = system: acetyl-α-tubulin in SH-SY5Y neuroblastoma cells; assay: Western blot of acetylated alpha-tubulin in SH-SY5Y neuroblastoma cells; assay type: cell-based; settings: 1 μM and 10 μM, 24 hours
# Experimental: SH-SY5Y neuroblastoma cells were seeded at 1,000,000 cells/well of three 6-well plates and incubated for 24 hours. Cells were treated with 2 control and experimental HDAC6 inhibitors at 1 μM and 10 μM for 24-hours. Following treatment, cells were lysed, and proteins extracted for western blot. Proteins were separated by gel electrophoresis and transferred to nitrocellulose membranes. Membranes were blocked and probed with primary Abs overnight.
# acetyl-α-tubulin (Lys40)(D20G3); Cell Signaling Technologies, #5335S
# GAPDH; Millipore Sigma, #MAB374
# Membranes were probed with secondary Abs for 1 hour and then the blots were imaged using the iBright 1500 (ThermoFisher)
# HDAC3, sequence (O15379 whole entry, species assumed): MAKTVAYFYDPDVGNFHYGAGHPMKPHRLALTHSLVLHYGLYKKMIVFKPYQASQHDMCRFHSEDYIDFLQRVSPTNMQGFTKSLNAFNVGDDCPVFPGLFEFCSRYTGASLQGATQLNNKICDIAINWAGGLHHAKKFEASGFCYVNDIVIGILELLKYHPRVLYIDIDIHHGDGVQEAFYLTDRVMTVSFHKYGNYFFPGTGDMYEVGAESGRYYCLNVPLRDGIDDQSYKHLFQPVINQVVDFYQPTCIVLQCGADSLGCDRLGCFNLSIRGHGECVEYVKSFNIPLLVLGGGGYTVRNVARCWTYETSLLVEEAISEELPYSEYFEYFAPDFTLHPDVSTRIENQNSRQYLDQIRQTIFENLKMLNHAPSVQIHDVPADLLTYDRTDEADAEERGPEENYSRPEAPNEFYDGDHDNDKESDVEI
# HDAC3, sequence (Q9Y618 395-489 partner limits assumed, species assumed): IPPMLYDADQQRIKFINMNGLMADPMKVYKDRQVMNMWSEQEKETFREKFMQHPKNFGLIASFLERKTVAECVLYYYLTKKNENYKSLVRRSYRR
# HDAC1, sequence (Q13547 whole entry, species assumed): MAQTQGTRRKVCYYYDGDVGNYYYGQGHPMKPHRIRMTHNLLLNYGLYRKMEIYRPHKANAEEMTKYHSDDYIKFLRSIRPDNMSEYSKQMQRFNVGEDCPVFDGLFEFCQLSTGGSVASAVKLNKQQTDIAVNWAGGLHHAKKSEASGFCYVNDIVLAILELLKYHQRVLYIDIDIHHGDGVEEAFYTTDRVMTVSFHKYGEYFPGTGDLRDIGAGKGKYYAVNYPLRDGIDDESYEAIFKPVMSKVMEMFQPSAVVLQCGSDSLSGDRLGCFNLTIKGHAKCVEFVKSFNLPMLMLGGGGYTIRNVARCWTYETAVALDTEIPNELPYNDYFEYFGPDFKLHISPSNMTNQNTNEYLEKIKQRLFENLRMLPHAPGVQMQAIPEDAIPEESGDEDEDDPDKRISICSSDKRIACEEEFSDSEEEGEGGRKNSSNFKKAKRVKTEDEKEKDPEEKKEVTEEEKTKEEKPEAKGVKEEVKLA
SMILES,pIC50 (HDAC6),acetylation of α-tubulin (Western blot) [2],other results
"O=C(CCCCCCNC(=O)c1cnc(N(c2ccccc2)c2ccccc2)nc1)NO [ACY-1215, ricolinostat, reference compound]",–,–,pIC50 [1]: 5.75
"CC1CN(C(=O)c2ccc(Nc3nccc(-c4ccc(C(=O)NO)cc4)n3)cc2F)CCO1 (stereo not drawn) [Compound I-5, 4-(2-((3-fluoro-4-(2-methylmorpholine-4-carbonyl)phenyl)amino)pyrimidin-4-yl)-N-hydroxybenzamide]",> 6.00,–,pIC50 (HDAC1): 5.79; pIC50 (HDAC3): 5.87; pIC50 (HDAC8): 6.79; pIC50 (HDAC10): 7.13; pIC50 (HDAC11): 6.11
"CN1CCN(Cc2ccc(Nc3nccc(-c4ccc(C(=O)NO)cc4)n3)cc2F)CC1 [Compound I-7, 4-(2-((3-fluoro-4-((4-methylpiperazin-1-yl)methyl)phenyl)amino)pyrimidin-4-yl)-N-hydroxybenzamide]",> 6.00,induce acetylation of α-tubulin in SH-SY5Y neuroblastoma cells in a dose-dependent manner,–
"O=C(NO)c1ccc(-c2ccnc(Nc3ccc(CN4CCN(C5COC5)CC4)c(F)c3)n2)cc1 [Compound I-9, 4-(2-((3-fluoro-4-((4-(oxetan-3-yl)piperazin-1-yl)methyl)phenyl)amino)pyrimidin-4-yl)-N-hydroxybenzamide]",> 6.00,induce acetylation of α-tubulin in SH-SY5Y neuroblastoma cells in a dose-dependent manner,–
"O=C(NO)c1ccc(-c2ccnc(N3CCC4(CC3)COC4)n2)cc1 [Compound I-25, 4-(2-(2-oxa-7-azaspiro[3.5]nonan-7-yl)pyrimidin-4-yl)-N-hydroxybenzamide]",> 6.00,induce acetylation of α-tubulin in SH-SY5Y neuroblastoma cells in a dose-dependent manner,–
"O=C1NCC2(CCN(c3nccc(-c4ccc(C(=O)NO)cc4)n3)CC2)O1 [Compound I-26, N-hydroxy-4-(2-(2-oxo-1-oxa-3,8-diazaspiro[4.5]decan-8-yl)pyrimidin-4-yl)benzamide]",> 6.00,induce acetylation of α-tubulin in SH-SY5Y neuroblastoma cells in a dose-dependent manner,–
"O=C(NO)c1ccc(-c2ccnc(N3CCC(F)(F)CC3)n2)cc1 [Compound I-27, 4-(2-(4,4-difluoropiperidin-1-yl)pyrimidin-4-yl)-N-hydroxybenzamide]",> 6.00,induce acetylation of α-tubulin in SH-SY5Y neuroblastoma cells in a dose-dependent manner,–
"Cn1cc(CNCC2CCN(c3ncc(C(=O)NO)cn3)CC2)c2ccccc21 [Quisinostat, reference compound]",–,–,pIC50 (HDAC10): 8.08
